Experimental data as given in ChEMBL document CHEMBL1921781, “Antibacterial and antitubercular activity of fosmidomycin, FR900098, and their lipophilic analogs” (2011).
In brackets after ≈: the same amount, converted by molar mass.

Assays:
Assay type in all cases: functional
[1] = system: Bacillus anthracis; assay: Antibacterial activity against Bacillus anthracis after overnight incubation by microbroth dilution method
[2] = system: Enterococcus faecalis; assay: Antibacterial activity against Enterococcus faecalis after overnight incubation by microbroth dilution method
[3] = system: Staphylococcus aureus; assay: Antibacterial activity against methicillin-susceptible Staphylococcus aureus after overnight incubation by microbroth dilution method
[4] = system: Staphylococcus aureus; assay: Antibacterial activity against methicillin-resistant Staphylococcus aureus after overnight incubation by microbroth dilution method
[5] = system: Mycobacterium tuberculosis; assay: Antitubercular activity against Mycobacterium tuberculosis H37Rv after 7 days by microbroth dilution method; conditions: 168 h
[6] = system: Acinetobacter; assay: Antibacterial activity against Acinetobacter after overnight incubation by microbroth dilution method
[7] = system: Escherichia coli; assay: Antibacterial activity against Escherichia coli K-12 after overnight incubation by microbroth dilution method
[8] = system: Escherichia coli; assay: Antibacterial activity against Escherichia coli expressing TolC after overnight incubation by microbroth dilution method

SMILES | MIC [1] [µg/mL] | MIC [2] [µg/mL] | MIC [3] [µg/mL] | MIC [4] [µg/mL] | MIC [5] [µg/mL] | MIC [6] [µg/mL] | MIC [7] [µg/mL] | MIC [8] [µg/mL]
CC(=O)N(O)CCCP(=O)([O-])O.[Na+] | 50 | > 200 | > 200 | 50 | > 500 | 50 | 200 | 12.5
CCOP(=O)(CCCN(O)C=O)OCC | > 200 | > 200 | > 200 | > 200 | 400 (≈ 1670 µM) | > 200 | > 200 | > 200
CCOP(=O)(CCCN(O)C(C)=O)OCC | 200 (≈ 790 µM) | > 200 | > 200 | 200 (≈ 790 µM) | 200 (≈ 790 µM) | > 200 | > 200 | > 200
CC(=O)N(O)CCCP(=O)(OC(C)C)OC(C)C | > 200 | > 200 | > 200 | > 200 | 400 (≈ 1420 µM) | > 200 | > 200 | > 200
CCCCCCOP(=O)(CCCN(O)C(C)=O)OCCCCCC |  |  |  |  | 100 (≈ 274 µM) |  |  | 
CCOC(=O)OC(C)OP(=O)(CCCN(O)C(C)=O)OC(C)OC(=O)OCC (stereo not drawn) | > 200 | > 200 | > 200 | > 200 | 400 (≈ 932 µM) | > 200 | > 200 | 200 (≈ 466 µM)
CC(=O)N(O)CCCP(=O)(OCC(=O)OC(C)(C)C)OCC(=O)OC(C)(C)C | > 200 | > 200 | 100 (≈ 235 µM) | 25 (≈ 58.8 µM) | 400 (≈ 940 µM) | > 200 | > 200 | > 200
CC(=O)N(O)CCCP(=O)(OC(C)OC(=O)OC(C)(C)C)OC(C)OC(=O)OC(C)(C)C (stereo not drawn) | 200 (≈ 412 µM) | > 200 | 100 (≈ 206 µM) | 50 (≈ 103 µM) | 400 (≈ 824 µM) | > 200 | > 200 | > 200
CC(=O)N(O)CCCP(=O)(OCOC(=O)c1ccccc1)OCOC(=O)c1ccccc1 | 100 (≈ 215 µM) | > 200 | > 200 | > 200 | 25 (≈ 53.7 µM) | 200 (≈ 430 µM) | > 200 | 50 (≈ 107 µM)
CC(=O)N(O)CCCP(=O)(OC(C)OC(=O)c1ccccc1)OC(C)OC(=O)c1ccccc1 (stereo not drawn) | 50 (≈ 101 µM) | > 200 | > 200 |  | 100 (≈ 203 µM) | 100 (≈ 203 µM) | 50 (≈ 101 µM) | 50 (≈ 101 µM)
CC(=O)N(O)CCCP(=O)(OCOC(=O)C(C)(C)C)OCOC(=O)C(C)(C)C | 200 (≈ 470 µM) | > 200 | 100 (≈ 235 µM) | 50 (≈ 118 µM) | 50 (≈ 118 µM) | > 200 | > 200 | 100 (≈ 235 µM)
O=CN(O)CCCP(=O)(O)O [FOSMIDOMYCIN] | 0.78 (≈ 4.26 µM) | > 200 | > 200 | 200 (≈ 1090 µM) | > 500 | 100 (≈ 546 µM) | 12.5 (≈ 68.3 µM) | 6.25 (≈ 34.1 µM)
